What all share (format): cell-based
For experiment [1], the system named is Lactococcus lactis subsp. cremoris strain MG1363. The experiment can be described thus: Culturing in the presence of protoporphyrin IX (Example 1.2). The conditions noted are these: for Concentration of lactic acid / Final pH / Number of viable cells / OD600 nm: 1% glucose, 24 h. As to the method:
A laboratory medium (M17 supplemented with 1% glucose) is inoculated with the Lacrococcus lactis subsp. cremoris strain MG1363 in the form of a 1/1000 dilution of a saturated culture (prepared at 30° C. with no shaking). The inoculated medium contained or not protoporphyrin IX at a final concentration of 10 μg/ml (a 0.5 mg/ml stock solution is prepared by adding 100 mg of protoporphyin IX to 2 ml of 5N NaOH, to which 198 ml of water is then added; the solution is autoclaved at 120° C. for 20 minutes). For bacteria grown in medium containing protoporphyrin IX, cultures were maintained at 30° C. with shaking (250 rotations per minute) in order to ensure oxygenation, or without shaking as a control. Two other control cultures, without protoporphyin IX or without shaking, were grown at 30° C. in parallel. After 24 h of growth, aliquots are removed to measure the optical density at 600 nm (OD600 nm), the number of viable bacteria, the final pH and the concentration of lactate in the medium.

Experiment [2] has the same test system. The experiment can be described thus: Survival of the lactic acid bacteria during storage at 4° C. (Example 3). The conditions noted are these: for Number of cells per ml: porphyrin compound and aeration, 1% glucose M17, storage at 4° C. As to the method:
A laboratory medium, i.e. M17 supplemented with 1% of glucose, is inoculated with Lactococcus lactis subsp. cremoris strain MG1363 in the form of a 1/1000 dilution of a saturated culture. The cultures are then divided into two equal parts, and hemin is added to one of these two cultures to give a final concentration of 10 μg/ml. […] Aliquots of the two cultures are removed regularly during the exponential growth phase in order to monitor viability, rate of growth and pH. After 24 h of growth, the cultures are placed (stored) in a 30° C. incubator without shaking, and aliquots are removed every 24 h in order to monitor the viability of the cells. The Lactococcus lactis subsp. cremoris strain MG1363 was cultured as in the experiment described in Example 2, but the storage, which is carried out 24 h after inoculation, is at 4° C. instead of at 30° C.

The test system is the same in experiment [3]. Description: Culturing in the presence of chlorophyllin (Example 1.3). The note with it: cultures in the presence of chlorophyllin, not shaken. As to the method: A laboratory medium (M17 supplemented with 1% glucose) is inoculated with the Lactococcus lactis subsp. cremoris strain MG1363 in the form of a 1/1000 dilution of a saturated culture (prepared at 30° C. with no shaking). The inoculated medium contained or not chlorophyllin (a degradation product of chlorophyll) at a final concentration of 10 μg/ml. In order for it to be active, the chlorophyllin was incubated beforehand in an acidic medium and in the presence of traces of iron in order to replace the Cu atom with an Fe atom. This can, for example, be done as follows: a) by incubating a concentrated solution of chlorophyllin for 24 h in a laboratory medium (M17 supplemented with glucose) which was inoculated with 10^6 lactococci per ml and maintained at 30° C. for 24 h. The supernatant containing the chlorophyllin at a concentration of 100 μg/ml is filtered and then added to the culture medium so as to obtain a final concentration of 10 μg/mi. b) by incubating a concentrated solution of chlorophyllin for 24 h in M17 at a pH of between 3 and 5 (acidified with HCl) and at a temperature of 4° C., 30° C. or 60° C. The pH is then readjusted to 7. […] The pH is then readjusted to 7. […]

[4] abbreviates: with protoporphyrin IX 10 μg/ml and aeration.
Where [5] appears, read: with protoporphyrin IX 10 μg/ml but without aeration.

As for `C=CC1=C(C)c2cc3[nH]c(cc4nc(cc5[nH]c(cc1n2)c(C)c5CCC(=O)O)C(CCC(=O)O)=C4C)c(C)c3C=C` [protoporphyrin IX], the “production of lactic acid as share of the quantity of sugar added” value in experiment [1] (cells cultured in the presence of protoporphyrin IX and oxygen) was “less than 40%”. Further, the “pH of the culture (remains stable)” value in experiment [1] (protoporphyrin IX and oxygen) was “approximately 5.5”. Besides, the “Concentration of lactic acid” value in experiment [1] (setting [4]) turned out to be 1.9 g/L; in experiment [1] (setting [5]), 8.2 g/L. For the same compound, the “Final pH” value in experiment [1] (setting [4]) turned out to be 5.49; in experiment [1] (setting [5]), 4.53. Also, the “Number of viable cells” value in experiment [1] (setting [4]) was 6.9 ×10^9; in experiment [1] (setting [5]), 2.7 ×10^9. Moreover, the figures for the OD600 nm in experiment [1] (setting [4]) and in experiment [1] (setting [5]) were 4.6 and 2.5, respectively. Moreover, in experiment [2] (after 2 months at 4° C., cultured with porphyrin compound under aeration), the survival rate is recorded as approximately 1%. Further, the “Number of cells per ml” value in experiment [2] (0 days after culture) is reported as 6.4 × 10^9 cells per ml; in experiment [2] (1 day after culture), 6.2 × 10^9 cells per ml; in experiment [2] (2 days after culture) it was 5.6 × 10^9 cells per ml; in experiment [2] (3 days after culture), 5.4 × 10^9 cells per ml; in experiment [2] (7 days after culture) it was 4.0 × 10^9 cells per ml; in experiment [2] (8 days after culture), 2.8 × 10^9 cells per ml. For the same compound, the “Number of cells per ml” value in experiment [2] (9 days after culture) is on record as 1.9 × 10^9 cells per ml; in experiment [2] (10 days after culture), 3.9 × 10^8 cells per ml; in experiment [2] (13 days after culture), 1.7 × 10^8 cells per ml; in experiment [2] (15 days after culture), 6.0 × 10^7 cells per ml; in experiment [2] (22 days after culture), 5.9 × 10^7 cells per ml; in experiment [2] (28 days after culture), 5.4 × 10^7 cells per ml. The “Number of cells per ml” value in experiment [2] (36 days after culture) was 5.4 × 10^7 cells per ml; in experiment [2] (43 days after culture) it was 5.3 × 10^7 cells per ml; in experiment [2] (50 days after culture), 4.8 × 10^7 cells per ml; in experiment [2] (57 days after culture), 5.3 × 10^7 cells per ml.

Regarding chlorophyllin, the “variation of OD600 nm and pH from the control” value in experiment [3] was “No significant variation from the control”.

The values above are taken from patent publication US20160075991A1, “Process for Preparing Starter Cultures of Lactic Acid Bacteria” (INSTITUT NATIONAL DE LA RECHERCHE, priority 1998, published 2016).
